Results as given in patent US9833497B2, “Human originated EGF domain proteins and use of the same” (CHENGDU SOURCEBIO LIMITED-LIABILITY COMPANY, priority 2013, dated 2017).

Legend:
Assay type in all cases: cell-based
E. coli DH5α = assay: Antibacterial activity: MIC and growth curve against E. coli DH5α in 96-well plate; details: minimal inhibitory concentration against E. coli DH5α; 96-well plate, 5×10^5 CFU/mL, 37° C., judged after 8 h
In short: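 MIC taken as lowest protein level with no bacterial growth, tracked by A600 every 30 min during 37 °C, 175 rpm culture. Two-fold protein series 50-12.5 μg/mL final, triplicate wells, against 5×10^5 CFU/mL of LB-washed mid-log cells.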

Moraxella catarrhalis = assay: MIC against Gram-negative bacteria: Moraxella catarrhalis; details: 5×10^5 CFU/mL
In short: (§1)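 Bacteria grown in LB at 37° C with shaking to McFarland 0.5, pelleted and resuspended in fresh LB, then seeded at 5×10^5 CFU/mL per well. Purified recombinant human EGF domain proteins were two-fold serially diluted in triplicate and plates shaken at 37° C, 175 rpm. MIC is the lowest protein concentration with no bacterial growth.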

Pseudomonas aeruginosa = assay: MIC against Gram-negative bacteria: Pseudomonas aeruginosa; details: 5×10^5 CFU/mL
In short: as §1

Proteus vulgaris = assay: MIC against Gram-negative bacteria: Proteus vulgaris; details: 5×10^5 CFU/mL
In short: as §1

Proteus mirabilis = assay: MIC against Gram-negative bacteria: Proteus mirabilis; details: 5×10^5 CFU/mL
In short: as §1

Aeromonas hydrophila = assay: MIC against Gram-negative bacteria: Aeromonas hydrophila; details: 5×10^5 CFU/mL
In short: as §1

Citrobacter diversus = assay: MIC against Gram-negative bacteria: Citrobacter diversus; details: 5×10^5 CFU/mL
In short: as §1

Serratia marcescens = assay: MIC against Gram-negative bacteria: Serratia marcescens; details: 5×10^5 CFU/mL
In short: as §1

Klebsiella pneumonia = assay: MIC against Gram-negative bacteria: Klebsiella pneumonia; details: 5×10^5 CFU/mL
In short: as §1

Enterobacter cloacae = assay: MIC against Gram-negative bacteria: Enterobacter cloacae; details: 5×10^5 CFU/mL
In short: as §1

E. coli BL21 = assay: MIC against Gram-negative bacteria: E. coli BL21; details: 5×10^5 CFU/mL
In short: as §1

[1] = Moraxella catarrhalis, 96-well plate, 37° C., 10 h
[2] = Pseudomonas aeruginosa, 96-well plate, 37° C., 10 h
[3] = Proteus vulgaris, 96-well plate, 37° C., 10 h
[4] = Proteus mirabilis, 96-well plate, 37° C., 10 h
[5] = Aeromonas hydrophila, 96-well plate, 37° C., 10 h
[6] = Citrobacter diversus, 96-well plate, 37° C., 10 h
[7] = Serratia marcescens, 96-well plate, 37° C., 10 h
[8] = Klebsiella pneumonia, 96-well plate, 37° C., 10 h
[9] = Enterobacter cloacae, 96-well plate, 37° C., 10 h
[10] = E. coli BL21, 96-well plate, 37° C., 10 h
[11] = 10 h cultivation at 37° C., two-fold serial dilution
[12] = E. coli BL21, 10 h cultivation at 37° C.

PRT2 (DQLICVNENGGCEQYCSDHTGTKRSCRCHEGYSLLADGVSCT; listed as Homo sapiens)
25 µg/mL: MIC (E. coli DH5α) | MIC (μg/mL) P. mirabilis (Proteus mirabilis; [4]) | MIC (μg/mL) A. hydrophila (Aeromonas hydrophila; [5]) | MIC (μg/mL) C. diversus (Citrobacter diversus; [6]) | MIC (μg/mL) E. cloacae (Enterobacter cloacae; [9])
50 µg/mL: MIC (μg/mL) P. aeruginosa (Pseudomonas aeruginosa; [2]) | MIC (μg/mL) K. pneumonia (Klebsiella pneumonia; [8]) | MIC (μg/mL) E. coli BL21 (E. coli BL21; [10])
12.5 µg/mL: MIC (μg/mL) M. catarrhalis (Moraxella catarrhalis; [1]) | MIC (μg/mL) P. vulgaris (Proteus vulgaris; [3]) | MIC (μg/mL) S. marcescens (Serratia marcescens; [7])

PRT655 (DVDECATTDPCVGGHCVNTEGSFNCLCETGFQPSPESGECV; listed as Homo sapiens)
50 µg/mL: MIC M. catarrhalis (Moraxella catarrhalis; 96-well plate, 37° C., 10 h) | MIC E. cloacae (Enterobacter cloacae; 96-well plate, 37° C., 10 h) | MIC E. coli BL21 (E. coli BL21; 96-well plate, 37° C., 10 h)
25 µg/mL: MIC (E. coli DH5α) | MIC P. mirabilis (Proteus mirabilis; 96-well plate, 37° C., 10 h) | MIC A. hydrophila (Aeromonas hydrophila; 96-well plate, 37° C., 10 h) | MIC S. marcescens (Serratia marcescens; 96-well plate, 37° C., 10 h) | MIC K. pneumonia (Klebsiella pneumonia; 96-well plate, 37° C., 10 h)
12.5 µg/mL: MIC P. aeruginosa (Pseudomonas aeruginosa; 96-well plate, 37° C., 10 h) | MIC P. vulgaris (Proteus vulgaris; 96-well plate, 37° C., 10 h) | MIC C. diversus (Citrobacter diversus; 96-well plate, 37° C., 10 h)

PRT1082 (GTNPCSVNNGDCSQLCLPTSETTRSCMCTAGYSLRSGQQACE; listed as Homo sapiens)
12.5 µg/mL: MIC P. vulgaris (Proteus vulgaris; [11]) | MIC A. hydrophila (Aeromonas hydrophila; [11]) | MIC E. coli BL21 (E. coli BL21; [11])
50 µg/mL: MIC (E. coli DH5α) | MIC M. catarrhalis (Moraxella catarrhalis; [11]) | MIC K. pneumonia (Klebsiella pneumonia; [11])
25 µg/mL: MIC P. aeruginosa (Pseudomonas aeruginosa; [11]) | MIC P. mirabilis (Proteus mirabilis; [11]) | MIC C. diversus (Citrobacter diversus; [11]) | MIC S. marcescens (Serratia marcescens; [11]) | MIC E. cloacae (Enterobacter cloacae; [11])

PRT759 (RVDYCLLSDHGCEYSCVNMDRSFACQCPEGHVLRSDGKTCA; listed as Homo sapiens)
12.5 µg/mL: MIC (μg/mL) P. vulgaris (Proteus vulgaris; P. vulgaris, 10 h cultivation at 37° C.) | MIC (μg/mL) P. mirabilis (Proteus mirabilis; P. mirabilis, 10 h cultivation at 37° C.) | MIC (μg/mL) A. hydrophila (Aeromonas hydrophila; A. hydrophila, 10 h cultivation at 37° C.) | MIC (μg/mL) C. diversus (Citrobacter diversus; C. diversus, 10 h cultivation at 37° C.) | MIC (μg/mL) K. pneumonia (Klebsiella pneumonia; K. pneumonia, 10 h cultivation at 37° C.) | MIC (μg/mL) E. cloacae (Enterobacter cloacae; E. cloacae, 10 h cultivation at 37° C.) | MIC (μg/mL) E. coli BL21 (E. coli BL21; [12])
25 µg/mL: MIC (E. coli DH5α) | MIC (μg/mL) M. catarrhalis (Moraxella catarrhalis; M. catarrhalis, 10 h cultivation at 37° C.) | MIC (μg/mL) P. aeruginosa (Pseudomonas aeruginosa; P. aeruginosa, 10 h cultivation at 37° C.) | MIC (μg/mL) S. marcescens (Serratia marcescens; S. marcescens, 10 h cultivation at 37° C.)

PRT119 (CAPCPNNGRPTLSGTECLCVCQSGTYGENCE; listed as Homo sapiens)
25 µg/mL: MIC (μg/mL) P. mirabilis (Proteus mirabilis; [4]) | MIC (μg/mL) C. diversus (Citrobacter diversus; [6]) | MIC (μg/mL) E. cloacae (Enterobacter cloacae; [9])
12.5 µg/mL: MIC (E. coli DH5α) | MIC (μg/mL) P. aeruginosa (Pseudomonas aeruginosa; [2]) | MIC (μg/mL) P. vulgaris (Proteus vulgaris; [3]) | MIC (μg/mL) A. hydrophila (Aeromonas hydrophila; [5]) | MIC (μg/mL) S. marcescens (Serratia marcescens; [7])
50 µg/mL: MIC (μg/mL) M. catarrhalis (Moraxella catarrhalis; [1]) | MIC (μg/mL) K. pneumonia (Klebsiella pneumonia; [8]) | MIC (μg/mL) E. coli BL21 (E. coli BL21; [10])

PRT1067 (KLTSCATNASICGDEARCVRTEKAAYCACRSGFHTVPGQPGCQ; listed as Homo sapiens)
25 µg/mL: MIC (E. coli DH5α) | MIC P. aeruginosa (Pseudomonas aeruginosa; [11]) | MIC P. mirabilis (Proteus mirabilis; [11]) | MIC A. hydrophila (Aeromonas hydrophila; [11]) | MIC C. diversus (Citrobacter diversus; [11]) | MIC S. marcescens (Serratia marcescens; [11]) | MIC E. cloacae (Enterobacter cloacae; [11])
50 µg/mL: MIC P. vulgaris (Proteus vulgaris; [11]) | MIC E. coli BL21 (E. coli BL21; [11])
12.5 µg/mL: MIC M. catarrhalis (Moraxella catarrhalis; [11]) | MIC K. pneumonia (Klebsiella pneumonia; [11])

PRT1456 (DYDECERKEDDCVPGTSCRNTLGSFTCSCEGGAPDFPVEYSE; listed as Homo sapiens)
25 µg/mL: MIC against C. diversus (Citrobacter diversus; Citrobacter diversus, 10 h cultivation at 37° C.) | MIC against E. cloacae (Enterobacter cloacae; Enterobacter cloacae, 10 h cultivation at 37° C.) | MIC against E. coli BL21 (E. coli BL21; [12])
50 µg/mL: MIC against M. catarrhalis (Moraxella catarrhalis; Moraxella catarrhalis, 10 h cultivation at 37° C.) | MIC against K. pneumonia (Klebsiella pneumonia; Klebsiella pneumonia, 10 h cultivation at 37° C.)
12.5 µg/mL: MIC (E. coli DH5α) | MIC against P. aeruginosa (Pseudomonas aeruginosa; Pseudomonas aeruginosa, 10 h cultivation at 37° C.) | MIC against P. vulgaris (Proteus vulgaris; Proteus vulgaris, 10 h cultivation at 37° C.) | MIC against P. mirabilis (Proteus mirabilis; Proteus mirabilis, 10 h cultivation at 37° C.) | MIC against A. hydrophila (Aeromonas hydrophila; Aeromonas hydrophila, 10 h cultivation at 37° C.) | MIC against S. marcescens (Serratia marcescens; Serratia marcescens, 10 h cultivation at 37° C.)
